The record followed here is patent EP0684043A1, “Therapeutic composition for corneal impairment containing a phosphonic acid diester compound” (Senju Pharmaceutical Co., Ltd., priority 1994, dated 1995).

Read-outs that look alike come from different tables or passages of the source.

Series [1] deals with UV-induced corneal lesions in rabbits. Nature of the series: Inhibitory effect on UV-induced corneal lesions in rabbits (fluorescein penetration into cornea, anterior fluorophotometer). The format is in vivo, White rabbits. As to conditions: rabbit cornea. As to the method: The inhibitory effect of the present compound on UV-induced corneal lesions in rabbits was evaluated. Test substance: L-Ascorbyl DL-α-tocopheryl phosphate potassium (abbreviation: EPC-K). Method: White rabbits were used; 4 animals assigned to the present compound treatment group and 3 assigned to a control group (the nictitating membrane was excised beforehand).
For UV irradiation, Hoya-Schott's HLS200U (dominant wavelength 365 nm) equipped with a 200 W mercury-xenon lamp as the light source was used. Ushio Electric's Unimeter UIT-101 was used for the determination of luminous energy.
One eye of each rabbit was kept open with an eye speculum and set at a distance of 43 cm from the light source so that the irradiation energy would be 0.024 J/cm². The eye was irradiated with ultraviolet light under the conditions of 0.2 mW/cm² and 2 minutes. The fellow eye was protected with an eye patch.
After UV irradiation, the vehicle (2.6% concentrated glycerin solution) was instilled in the eyes of rabbits in the control group 3 times daily and 0.1% EPC-K (dissolved in 2.6% concentrated glycerin solution) was instilled as often into the eyes of rabbits in the present compound treatment group.
The degree of rabbit corneal lesion was evaluated by the following method^1). Using fluorescein as a tracer, the fluorescence intensity of the tracer dye penetrating into the cornea within a predetermined region was measured for a quantitative assessment of the barrier function of the corneal epithelium (The corneal epithelium has a barrier function^2) to restrict penetration of any substance into the deep layer of the cornea and when an erosion or other injury occurs in the corneal epithelium, this barrier function is compromised so that the penetration of the substance into the depth of the cornea is increased). Thus, at 0, 0.5, 6, 12, 24, 48 and 72 hours after UV irradiation, fluorescein sodium was instilled into the eye and the fluorescence intensity of the fluorescein sodium that had penetrated into the cornea was measured with a Kowa anterior fluorophotometer. 1) Norihiko Yokoi et al.: Quantitative evaluation of corneal epithelial barrier function with a new fluorophotometer, Journal of the Eye, 10(8); 1357-1363, 1993 2) Klyce SD and Crosson CE: Transport processes across the rabbit corneal epithelium, a review. Curr Eye Res 4 4;427-432, 1985.

The next series in a line: Acute toxicity (LD50). As to conditions: rat, in vivo, rats, read-out: LD₅₀. On the procedure:
The compound for use as an active ingredient in the therapeutic composition for corneal impairment according to this invention is a very safe substance with an extremely low toxic potential and, as such, can be used with advantage for the purposes of this invention. [e.g. the LD₅₀ values of L-ascorbyl DL-α-tocopheryl phosphate potassium (hereinafter referred to briefly as EPC-K) ≧ 5 g/kg p.o. (rats) and ≧ 100 mg/kg i.v. (rats)].

In the case of `Cc1c(C)c2c(c(C)c1OP(=O)(O)OC1=C(O)[C@@H]([C@@H](O)CO)OC1=O)CCC(C)(CCCC(C)CCCC(C)CCCC(C)C)O2` (mixture of isomers) [EPC-K, L-ascorbyl DL-α-tocopheryl phosphate potassium], the intensity of fluorescence in series [1] (0 hours after UV irradiation, 0.1% EPC-K in 2.6% concentrated glycerin solution instilled 3 times daily, control group 457) is given as 259; in series [1] (0.5 hours after UV irradiation, 0.1% EPC-K instilled 3 times daily, control group 791) it was 447; in series [1] (6 hours after UV irradiation, 0.1% EPC-K instilled 3 times daily, control group 899), 695; in series [1] (12 hours after UV irradiation, 0.1% EPC-K instilled 3 times daily, control group 3813), 1038; in series [1] (24 hours after UV irradiation, 0.1% EPC-K instilled 3 times daily, control group 3860) it was 875; in series [1] (48 hours after UV irradiation, 0.1% EPC-K instilled 3 times daily, control group 870), 343. For the same compound, in series [1] (72 hours after UV irradiation, 0.1% EPC-K instilled 3 times daily, control group 655), the intensity of fluorescence is 311. In addition, the results for the LD50 in the series “Acute toxicity (LD50)” (iv) and in the series “Acute toxicity (LD50)” (po) were ≥ 100 mg/kg and ≥ 5000 mg/kg, respectively.
